Measurements from patent US20250145585A1, “HETEROCYCLIC INHIBITORS OF IGF-1R FOR TREATMENT OF DISEASE” (HORIZON THERAPEUTICS IRELAND DAC, priority 2023, published 2025).
Where a name gives a salt, the structure may show the parent alone.

Target: T1, IGF-1R (Homo sapiens, UniProt P08069)
T1 construct: expressed in transfected cells
Test: Example B-2: IGF-1R Assay (PathHunter cell lines, EC80 agonist challenge, chemiluminescent detection)
Format: cell-based
Details: PathHunter cells, compound 60 minutes at 37° C., EC80 agonist 3 hours; read-out: IC50, Biological Activity against IGF-1R (Table B2)
Method: PathHunter cell lines were expanded from freezer stocks according to standard procedures. Cells were seeded in a total volume of 20 μL into white walled, 384-well microplates and incubated for the appropriate time prior to testing.
Cells are pre-incubated with compound followed by EC80 agonist challenge as follows: • R. 1. Intermediate dilution of sample stocks was performed to generate 5× sample in assay buffer. • 2. 5 μL of 5× sample was added to cells and incubated at 37° C. for 60 minutes. Vehicle concentration was 1%. • 3. 5 IL of 6× EC80 agonist in assay buffer was added to the cells and incubated at room temperature for 3 hours.
Assay signal was generated through a single addition of 12.5 or 15 μL (50% v/v) of PathHunter Detection reagent cocktail for agonist and antagonist assays respectively, followed by a one hour incubation at room temperature. Microplates were read following signal generation with a PerkinElmer Envision™ instrument for chemilumine-scent signal detection.
Compound activity was analyzed using CBIS data analysis suite (ChemInnovation, CA). Percentage inhibition was calculated using the following formula: % Inhibition=100%×(1−(mean RLU of test sample−mean RLU of vehicle control)/(mean RLU of EC80 control−mean RLU of vehicle control)). The activity for representative examples of the invention is shown in the following table, wherein A: IC50≤500 nM; B: 500 nM<IC50≤2 μM; C: 2 μM<IC50≤10 μM; D: IC50>10 μM.

T1 sequence (P08069 31-1367): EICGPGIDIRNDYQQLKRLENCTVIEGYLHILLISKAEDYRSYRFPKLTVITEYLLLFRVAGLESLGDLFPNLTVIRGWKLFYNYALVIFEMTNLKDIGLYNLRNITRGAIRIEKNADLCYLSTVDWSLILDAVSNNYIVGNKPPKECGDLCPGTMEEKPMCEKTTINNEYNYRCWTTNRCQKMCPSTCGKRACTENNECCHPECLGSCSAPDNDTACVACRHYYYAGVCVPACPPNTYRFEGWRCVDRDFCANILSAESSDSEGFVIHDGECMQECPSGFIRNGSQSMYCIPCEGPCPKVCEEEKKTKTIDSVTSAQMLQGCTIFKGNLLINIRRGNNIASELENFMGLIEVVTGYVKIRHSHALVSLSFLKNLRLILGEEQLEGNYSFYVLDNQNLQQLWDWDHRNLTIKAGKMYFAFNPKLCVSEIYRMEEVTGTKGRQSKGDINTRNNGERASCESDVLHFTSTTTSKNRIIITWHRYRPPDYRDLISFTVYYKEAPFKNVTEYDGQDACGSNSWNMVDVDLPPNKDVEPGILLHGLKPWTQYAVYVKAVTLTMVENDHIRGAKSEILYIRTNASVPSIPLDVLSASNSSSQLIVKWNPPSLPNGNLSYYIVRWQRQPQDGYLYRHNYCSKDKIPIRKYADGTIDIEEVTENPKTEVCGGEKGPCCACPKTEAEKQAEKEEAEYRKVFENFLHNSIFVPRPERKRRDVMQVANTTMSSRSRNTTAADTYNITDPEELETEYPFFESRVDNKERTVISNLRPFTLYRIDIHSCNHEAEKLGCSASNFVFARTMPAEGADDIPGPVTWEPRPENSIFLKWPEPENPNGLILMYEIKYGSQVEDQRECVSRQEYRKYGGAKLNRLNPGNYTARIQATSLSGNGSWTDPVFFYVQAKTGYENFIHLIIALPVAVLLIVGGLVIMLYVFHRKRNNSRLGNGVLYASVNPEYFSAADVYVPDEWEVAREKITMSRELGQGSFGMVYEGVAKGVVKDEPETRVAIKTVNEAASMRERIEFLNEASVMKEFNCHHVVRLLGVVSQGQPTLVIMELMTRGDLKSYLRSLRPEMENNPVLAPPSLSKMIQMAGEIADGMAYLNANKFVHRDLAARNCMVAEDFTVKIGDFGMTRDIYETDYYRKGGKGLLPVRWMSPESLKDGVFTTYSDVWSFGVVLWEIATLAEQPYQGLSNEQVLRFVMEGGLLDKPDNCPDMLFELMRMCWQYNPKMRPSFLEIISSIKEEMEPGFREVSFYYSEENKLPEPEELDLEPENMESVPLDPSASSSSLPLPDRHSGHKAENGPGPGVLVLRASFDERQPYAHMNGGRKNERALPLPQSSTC

Row | IC50 [nM] | Structure (SMILES)
1 | ≤ 500 | CC1(C)C(=O)N(c2ccc(C34CC(C3)C4)cc2)C(=O)N1Cc1ccnc2c1CC(=O)N2 [Compound 32, 3-(4-(bicyclo[1.1.1]pentan-1-yl)phenyl)-5,5-dimethyl-1-((2-oxo-2,3-dihydro-1H-pyrrolo[2,3-b]pyridin-4-yl)methyl)imidazolidine-2,4-dione]
2 | ≤ 500 | CC1(C)C(=O)N(c2ccc(C3(C(F)(F)F)CCC3)cc2)C(=O)N1Cc1ccnc2c1CC(=O)N2 [Compound 30, 5,5-dimethyl-1-((2-oxo-2,3-dihydro-1H-pyrrolo[2,3-b]pyridin-4-yl)methyl)-3-(4-(1-(trifluoromethyl)cyclobutyl)phenyl)imidazolidine-2,4-dione hydrochloride]
3 | ≤ 500 | CC(C)c1ccc(N2C(=O)N(Cc3ccnc(N[C@H]4[C@@H]5COC[C@@H]54)c3)C(C)(C)C2=O)cc1OCCN(C)C [Compound 280, 1-((2-(((1R,5S,6r)-3-oxabicyclo[3.1,0]hexan-6-yl)amino)pyridin-4-yl)methyl)-3-(3-(2-(dimethylamino)ethoxy)-4-isopropylphenyl)-5,5-dimethylimidazolidine-2,4-dione]
4 | ≤ 500 | CC1(C)C(=O)N(c2ccc(S(=O)(=O)C(F)(F)F)cc2)C(=O)N1Cc1ccnc(NC2CCc3cn[nH]c3C2)c1 (stereo not drawn) [Compound 325, 5,5-dimethyl-1-((2-((4,5,6,7-tetrahydro-1H-indazol-6-yl)amino)pyridin-4-yl)methyl)-3-(4-((trifluoromethyl)sulfonyl)phenyl) imidazolidine-2,4-dione]
5 | ≤ 500 | CC(C)(Br)Cc1cn(S(C)(=O)=O)c2cc(N3C(=O)N(Cc4ccnc5c4CC(=O)N5)C(C)(C)C3=O)ccc12 [Compound 41, 3-(3-(2-bromo-2-methylpropyl)-1-(methylsulfonyl)-1H-indol-6-yl)-5,5-dimethyl-1-((2-oxo-2,3-dihydro-1H-pyrrolo[2,3-b]pyridin-4-yl)methyl)imidazolidine-2,4-dione]
6 | ≤ 500 | CC1(C)C(=O)N(c2ccc3c(c2)N(S(C)(=O)=O)CC32CCC2)C(=O)N1Cc1ccnc(N[C@H]2CCOC2)c1 [Compound 204, (S)-5,5-dimethyl-3-(1′-(methylsulfonyl)spiro[cyclobutane-1,3′-indolin]-6′-yl)-1-((2-((tetrahydrofuran-3-yl)amino)pyridin-4-yl)methyl)imidazolidine-2,4-dione]
7 | 500 to 2000 | CC1(C)C(=O)N(c2ccc(OC(F)(F)F)cc2)C(=O)N1Cc1ccnc2c1CC(=O)N2 [Compound 285, 5,5-dimethyl-1-((2-oxo-2,3-dihydro-1H-pyrrolo[2,3-b]pyridin-4-yl)methyl)-3-(4-(trifluoromethoxy)phenyl) imidazolidine-2,4-dione]
8 | ≤ 500 | CC1(C)C(=O)N(c2ccc3c(c2)N(S(C)(=O)=O)CC32CCC2)C(=O)N1Cc1ccnc(NCC2CC2(F)F)c1 (stereo not drawn) [Compound 232, 1-((2-(((2,2-difluorocyclopropyl)methyl)amino)pyridin-4-yl)methyl)-5,5-dimethyl-3-(1′-(methylsulfonyl)spiro[cyclobutane-1,3′-indolin]-6′-yl)imidazolidine-2,4-dione]
9 | 500 to 2000 | CC(C)(C#N)c1ccc(N2C(=O)N(Cc3ccnc(N[C@H]4CCOC4)c3)C(C)(C)C2=O)cc1 [Compound 152, (S)-2-(4-(4,4-dimethyl-2,5-dioxo-3-((2-((tetrahydrofuran-3-yl)amino)pyridin-4-yl)methyl)imidazolidin-1-yl)phenyl)-2-methylpropanenitrile]
10 | 500 to 2000 | CC1(C)COc2cc(N3C(=O)N(Cc4ccnc5c4CC(=O)N5)C(C)(C)C3=O)c(Br)cc21 [Compound 53, 3-(5-bromo-3,3-dimethyl-2,3-dihydrobenzofuran-6-yl)-5,5-dimethyl-1-((2-oxo-2,3-dihydro-1H-pyrrolo[2,3-b]pyridin-4-yl)methyl)imidazolidine-2,4-dione]
11 | ≤ 500 | CC1(C)C(=O)N(c2ccc3c(c2)N(S(C)(=O)=O)CC32CCC2)C(=O)N1Cc1ccnc(N[C@H]2[C@@H]3COC[C@@H]32)c1 [Compound 216, 1-((2-(((1R,5S,6r)-3-oxabicyclo[3.1.0]hexan-6-yl)amino)pyridin-4-yl)methyl)-5,5-dimethyl-3-(1′-(methylsulfonyl)spiro[cyclobutane-1,3′-indolin]-6′-yl)imidazolidine-2,4-dione]
12 | ≤ 500 | CC1(C)C(=O)N(c2ccc(C3(C(F)(F)F)CC3)cc2)C(=O)N1Cc1ccnc2c1OC[C@@H](CC#N)N2 [Compound 56, (R)-2-(8-((5,5-dimethyl-2,4-dioxo-3-(4-(1-(trifluoromethyl)cyclopropyl)phenyl)imidazolidin-1-yl)methyl)-3,4-dihydro-2H-pyrido[3,2-b][1,4]oxazin-3-yl) acetonitrile]
13 | ≤ 500 | Cn1ccnc1CNc1cc(CN2C(=O)N(c3ccc(C4(C(F)(F)F)CC4)cc3)C(=O)C2(C)C)ccn1 [Compound 183, 5,5-dimethyl-1-((2-(((1-methyl-1H-imidazol-2-yl)methyl)amino)pyridin-4-yl)methyl)-3-(4-(1-(trifluoromethyl)cyclopropyl)phenyl) imidazolidine-2,4-dione]
14 | 500 to 2000 | CN(C)CCOc1cc(N2C(=O)N(Cc3ccnc4c3CC(=O)N4)C(C)(C)C2=O)ccc1OC(F)(F)F [Compound 284, 3-(3-(2-(dimethylamino)ethoxy)-4-(trifluoromethoxy)phenyl)-5,5-dimethyl-1-((2-oxo-2,3-dihydro-1H-pyrrolo[2,3-b]pyridin-4-yl)methyl)imidazolidine-2,4-dione]
15 | ≤ 500 | COC(C)CNc1cc(CN2C(=O)N(c3ccc(C4(C(F)(F)F)CC4)cc3)C(=O)C2(C)C)ccn1 (stereo not drawn) [Compound 163, 1-((2-((2-methoxypropyl)amino)pyridin-4-yl)methyl)-5,5-dimethyl-3-(4-(1-(trifluoromethyl)cyclopropyl)phenyl) imidazolidine-2,4-dione]
16 | ≤ 500 | CC(C)(C)c1ccc(N2C(=O)N(Cc3ccnc4c3CC(=O)N4)C(C)(C)C2=O)cc1 [Compound 36, 3-(4-(tert-butyl)phenyl)-5,5-dimethyl-1-((2-oxo-2,3-dihydro-1H-pyrrolo[2,3-b]pyridin-4-yl)methyl)imidazolidine-2,4-dione]
17 | ≤ 500 | C[C@H]1CNc2nccc(CN3C(=O)N(c4ccc(C5(C(F)(F)F)CC5)cc4)C(=O)C3(C)C)c2O1 [Compound 28, (S)-5,5-dimethyl-1-((2-methyl-3,4-dihydro-2H-pyrido[3,2-b][1,4]oxazin-8-yl)methyl)-3-(4-(1-(trifluoromethyl)cyclopropyl)phenyl) imidazolidine-2,4-dione]
18 | ≤ 500 | CC1CCc2c(CN3C(=O)N(c4ccc(C5(C(F)(F)F)CC5)cc4)C(=O)C3(C)C)ccnc2N1 (stereo not drawn) [Compound 55, 5,5-dimethyl-1-((7-methyl-5,6,7,8-tetrahydro-1,8-naphthyridin-4-yl)methyl)-3-(4-(1-(trifluoromethyl)cyclopropyl)phenyl) imidazolidine-2,4-dione]
19 | ≤ 500 | CC1(C)CN(S(C)(=O)=O)c2cc(N3C(=O)N(Cc4ccnc(N[C@H]5[C@@H]6COC[C@@H]65)c4)C(C)(C)C3=O)ccc21 [Compound 207, 1-((2-(((1R,5S,6r)-3-oxabicyclo[3.1.0]hexan-6-yl)amino)pyridin-4-yl)methyl)-3-(3,3-dimethyl-1-(methylsulfonyl)indolin-6-yl)-5,5-dimethylimidazolidine-2,4-dione]
20 | ≤ 500 | CC1(C)C(=O)N(c2ccc3c(c2)N(S(C)(=O)=O)CC32CCC2)C(=O)N1Cc1ccnc(NCC2CCOC2)c1 (stereo not drawn) [Compound 226, 5,5-dimethyl-3-(1′-(methylsulfonyl)spiro[cyclobutane-1,3′-indolin]-6′-yl)-1-((2-(((tetrahydrofuran-3-yl)methyl)amino)pyridin-4-yl)methyl)imidazolidine-2,4-dione]
21 | 2000 to 10000 | CC1(C)C(=O)N(c2ccc3c(c2)OC(F)(F)C32CC2)C(=O)N1Cc1ccnc2c1CC(=O)N2 [Compound 70, 3-(2,2-difluoro-2H-spiro[benzofuran-3,1′-cyclopropan]-6-yl)-5,5-dimethyl-1-((2-oxo-2,3-dihydro-1H-pyrrolo[2,3-b]pyridin-4-yl)methyl)imidazolidine-2,4-dione]
22 | 500 to 2000 | CC1(C)C(=O)N(c2ccc(C3(C(F)(F)F)CC3)cc2)C(=O)N1Cc1ccnc(NS(C)(=O)=O)c1 [Compound 166, N-(4-((5,5-dimethyl-2,4-dioxo-3-(4-(1-(trifluoromethyl)cyclopropyl)phenyl)imidazolidin-1-yl)methyl)pyridin-2-yl)methanesulfonamide]
23 | ≤ 500 | CC1(C)C(=O)N(c2ccc(C3(C#N)CC34CC4)cc2)C(=O)N1Cc1ccnc2c1CC(=O)N2 (stereo not drawn) [Compound 69, 1-(4-(4,4-dimethyl-2,5-dioxo-3-((2-oxo-2,3-dihydro-1H-pyrrolo[2,3-b]pyridin-4-yl)methyl)imidazolidin-1-yl)phenyl)spiro[2.2]pentane-1-carbonitrile]
24 | ≤ 500 | CC1(C)C(=O)N(c2ccc3c(c2)N(C(=O)C2CC2)CC32CCC2)C(=O)N1Cc1ccnc(NC2CCOCC2)c1 [Compound 237, 3-(1′-(cyclopropanecarbonyl)spiro [cyclobutane-1,3′-indolin]-6′-yl)-5,5-dimethyl-1-((2-((tetrahydro-2H-pyran-4-yl)amino)pyridin-4-yl)methyl)imidazolidine-2,4-dione]
